The results in this text go back to patent US20230203060A1 (GENFLEET THERAPEUTICS (SHANGHAI) INC., priority 2020, published 2023).

Each structure is given as a SMILES string. Structures can show the parent of a compound that is named as a salt. Where two headings read alike, the source gives them in different places.

Assay [1] deals with KRAS G12C mutant NCI-H358 cells. Description: Cell proliferation inhibition experiment, 3D spheroid, CellTiter-Glo, NCI-H358. Format: cell-based, human. The settings on record: read-out: H358 IC50. The method in brief:
(§1)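 Cells seeded in 2% FBS medium in spheroid plates (800 H358 or 400 A549 per well), grown overnight to form 3D spheroids, then exposed to 3.16-fold compound dilutions (0.1% DMSO) for 5 days. CellTiter-Glo luminescence gave inhibition vs DMSO and medium blanks; IC50 by four-parameter fit.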
On the technique in general: In ATP-based viability assays light output follows the ATP content of the culture.

For assay [2], the system named is A549 cells (KRAS G12S mutant). Kind of assay: Cell proliferation inhibition experiment, 3D spheroid, CellTiter-Glo, A549. Format: cell-based, human. The settings on record: A549 (KRAS G12S mutant) 3D spheroid, 5 days with compound, CellTiter-Glo, read-out: A549 IC50. The method, boiled down:
as §1

Where [3] appears, read: Homo sapiens, NCI-H358, 120 h, NCI-H358 (KRAS G12C mutant) 3D spheroid, 5 days with compound, CellTiter-Glo.
Setting [4] is: NCI-H358 (KRAS G12C mutant) 3D spheroid, 5 days with compound, CellTiter-Glo.

Consider `C=CC(=O)N1CCN2C(=O)c3c(N4C[C@@H](O)CC4(C)C)nc(-c4c(O)cccc4F)c(Cl)c3OC[C@H]2C1` (single isomer, unassigned) [Z81], for which the IC50 in assay [1] (setting [3]) was 1 nM; in assay [2] (Homo sapiens, A549, 120 h) it was > 1000 nM.

With `C=CC(=O)N1CCN2C(=O)c3c(N4C[C@H](O)CC4(C)C)nc(-c4c(O)cccc4F)c(Cl)c3OC[C@H]2C1` (single isomer, unassigned) [Z82], the IC50 in assay [1] (setting [3]) is 11 nM; in assay [2] (Homo sapiens, A549, 120 h), > 1000 nM.

As for `C=CC(=O)N1CCN2C(=O)c3c(N4CC(=O)N(C)CC4C)nc(-c4c(O)cccc4F)c(Cl)c3OC[C@H]2C1` (single isomer, unassigned) [Z221-1], the IC50 in assay [1] (setting [4]) is 2.7 nM; in assay [2] (Homo sapiens, A549, 120 h), > 30000 nM.

Take `C=CC(=O)N1CCN2C(=O)c3c(N4CC(=O)N(C)CC4C)nc(-c4c(O)cccc4F)c(Cl)c3OC[C@H]2C1` (single isomer, unassigned) [Z221-2]: the IC50 in assay [1] (setting [4]) came to 16.8 nM. For the compound `C=CC(=O)N1CCN2C(=O)c3c(N4CC(N(C)C5COC5)CC4(C)C)nc(-c4c(O)cccc4F)c(Cl)c3OC[C@H]2C1` (single isomer, unassigned) [Z331-1], the IC50 in assay [1] (setting [4]) was 0.5 nM; in assay [2] (Homo sapiens, A549, 120 h), 8330 nM.

With `C=CC(=O)N1CCN2C(=O)c3c(N4CC(N(C)C5COC5)CC4(C)C)nc(-c4c(O)cccc4F)c(Cl)c3OC[C@H]2C1` (single isomer, unassigned) [Z331-2], the IC50 in assay [1] (setting [4]) is 1.1 nM; in assay [2] it was 9320 nM. As to `C=CC(=O)N1CCN2C(=O)c3c(N4CCN(C)C[C@@H]4C)nc(-c4c(O)cccc4Cl)c(Cl)c3OC[C@H]2C1` (single isomer, unassigned) [Z455-1], the concentration for half-maximal inhibition (IC50) in assay [1] (setting [4]) worked out at 45.2 nM; in assay [2] it was 4180 nM. Taken in the same sequence, the figures for `C=CC(=O)N1CCN2C(=O)c3c(N4CCN(C)C[C@@H]4C)nc(-c4c(O)cccc4Cl)c(Cl)c3OC[C@H]2C1` (single isomer, unassigned) [Z455-2] were 3.7 nM and > 10000 nM.

With `C=CC(=O)N1CCN2C(=O)c3c(N4CC(N5CCOCC5)CC4(C)C)nc(-c4ccccc4F)c(Cl)c3OC[C@H]2C1` (single isomer, unassigned) [Z468-2], the IC50 in assay [1] (setting [4]) was determined as 5 nM; in assay [2] it was 4560 nM. Turning to `C=CC(=O)N1CCN2C(=O)c3c(N4C[C@H](N(C)C)CC4(C)C)nc(-c4ccccc4)c(Cl)c3OC[C@H]2C1` (single isomer, unassigned) [Z655-2], the results for the IC50 in assay [1] (setting [4]) and in assay [2] were 18 nM and 2750 nM, respectively. Take `C=CC(=O)N1CCN2C(=O)c3c(N4C[C@H](N(C)CCF)CC4(C)C)nc(-c4ccccc4F)c(Cl)c3OC[C@H]2C1` (single isomer, unassigned) [Z660-2]: the IC50 in assay [1] (setting [4]) is 10.8 nM; in assay [2] it was 9080 nM. On to `C=CC(=O)N1CCN2C(=O)c3c(Nc4c(C)ccnc4C(C)C)nc(-c4c(O)cccc4F)c(Cl)c3OC[C@H]2C1` [Z5, (6aR)-8-acryloyl-4-chloro-3-(2-fluoro-6-hydroxyphenyl)-1-((2-isopropyl-4-methylpyridin-3-yl)amino)-6,6a,7,8,9,10-hexahydro-12H-pyrazino[2,1-c]pyrido[3,4-f][1,4]oxazepin-12-one], for which the IC50 is 31 nM in assay [1] (setting [3]) and 4680 nM in assay [2] (Homo sapiens, A549, 120 h). Taken in the same sequence, the figures for `C=CC(=O)N1CCN2C(=O)c3c(N(C)c4c(C)ccnc4C(C)C)nc(-c4c(O)cccc4F)c(Cl)c3OC[C@H]2C1` [Z6, (6aR)-8-acryloyl-4-chloro-3-(2-fluoro-6-hydroxyphenyl)-1-((2-isopropyl-4-methylpyridin-3-yl)(methyl)amino)-6,6a,7,8,9,10-hexahydro-12H-pyrazino[2,1-c]pyrido[3,4-f][1,4]oxazepin-12-one] were 7 nM and > 30000 nM. The matching figures for `C=CC(=O)N1CCN2C(=O)c3c(OC4CCN(C)CC4)nc(-c4c(O)cccc4F)c(Cl)c3OC[C@H]2C1` [Z61, (6aR)-8-acryloyl-4-chloro-3-(2-fluoro-6-hydroxyphenyl)-1-((1-methylpiperidin-4-yl)oxy)-6,6a,7,8,9,10-hexahydro-12H-pyrazino[2,1-c]pyrido[3,4-f][1,4]oxazepin-12-one]: 33 nM and > 30000 nM.

As for `C=CC(=O)N1CCN2C(=O)c3c(N4CCOC5(CC5)C4)nc(-c4c(O)cccc4F)c(Cl)c3OC[C@H]2C1` [Z63, (6aR)-8-acryloyl-4-chloro-1-(4-oxa-7-azaspiro[2.5]octan-7-yl)-3-(2-fluoro-6-hydroxyphenyl)-6,6a,7,8,9,10-hexahydro-12H-pyrazino[2,1-c]pyrido[3,4-f][1,4]oxazepin-12-one], the IC50 is 14 nM in assay [1] (setting [3]) and > 1000 nM in assay [2] (Homo sapiens, A549, 120 h).

With `C=CC(=O)N1CCN2C(=O)c3c(N4CC[C@@H]4C)nc(-c4c(O)cccc4F)c(Cl)c3OC[C@H]2C1` [Z68, (6aR)-8-acryloyl-1-((S)-2-methylazetidin-1-yl)-4-chloro-3-(2-fluoro-6-hydroxyphenyl)-6,6a,7,8,9,10-hexahydro-12H-pyrazino[2,1-c]pyrido[3,4-f][1,4]oxazepin-12-one], the IC50 in assay [1] (setting [3]) was 12 nM; in assay [2] (Homo sapiens, A549, 120 h), > 5000 nM. Regarding `C=CC(=O)N1CCN2C(=O)c3c(NC(C)(C)C)nc(-c4c(O)cccc4F)c(Cl)c3OC[C@H]2C1` [Z69, (6aR)-8-acryloyl-1-(tert-butylamino)-4-chloro-3-(2-fluoro-6-hydroxyphenyl)-6,6a,7,8,9,10-hexahydro-12H-pyrazino[2,1-c]pyrido[3,4-f][1,4]oxazepin-12-one], the IC50 is 9 nM in assay [1] (setting [3]) and > 5000 nM in assay [2] (Homo sapiens, A549, 120 h).

On to `C=CC(=O)N1CCN2C(=O)c3c(NC(C)C)nc(-c4c(O)cccc4F)c(Cl)c3OC[C@H]2C1` [Z75, (6aR)-8-acryloyl-4-chloro-1-(isopropylamino)-3-(2-fluoro-6-hydroxyphenyl)-6,6a,7,8,9,10-hexahydro-12H-pyrazino[2,1-c]pyrido[3,4-f][1,4]oxazepin-12-one], for which the IC50 in assay [1] (setting [3]) was 29 nM; in assay [2] (Homo sapiens, A549, 120 h), > 1000 nM. As to `C=CC(=O)N1CCN2C(=O)c3c(N4C[C@H](O)C[C@@H]4C)nc(-c4c(O)cccc4F)c(Cl)c3OC[C@H]2C1` [Z259, (6aR)-8-acryloyl-4-chloro-3-(2-fluoro-6-hydroxyphenyl)-1-((2S,4R)-4-hydroxy-2-methylpyrrolidin-1-yl)-6,6a,7,8,9,10-hexahydro-12H-pyrazino[2,1-c]pyrido[3,4-f][1,4]oxazepin-12-one], in assay [1] (setting [3]), the IC50 is 29 nM. The same measure, in the same setting: the same measure for `C=CC(=O)N1CCN2C(=O)c3c(N4CCNC(C)C4C)nc(-c4c(O)cccc4F)c(Cl)c3OC[C@H]2C1` (stereo partly drawn) [Z308, (6aR)-8-acryloyl-4-chloro-1-(2,3-dimethylpiperazin-1-yl)-3-(2-fluoro-6-hydroxyphenyl)-6,6a,7,8,9, 10-hexahydro-12H-pyrazino[2,1-c]pyrido[3,4-f][1,4]oxazepin-12-one]: 30 nM.

Turning to `C=CC(=O)N1CCN2C(=O)c3c(N4CCN(C)C(C)(C)C4)nc(-c4ccccc4F)c(Cl)c3OC[C@H]2C1` [Z463, (R)-8-acryloyl-4-chloro-3-(2-fluorophenyl)-1-(3,3,4-trimethylpiperazin-1-yl)-6,6a,7,8,9,10-hexahydro-12H-pyrazino[2,1-c]pyrido[3,4-f][1,4]oxazepin-12-one, formate], in assay [1] (Homo sapiens, NCI-H358, 120 h), the IC50 is 39 nM.

Usually IC50 stands for the midpoint of a concentration-inhibition curve.
